PubChem BioAssay AID2842 (Southern Research Institute, 2010)
In brackets after ≈: the same amount, converted by molar mass.

Each molecule was assayed on M. tuberculosis H37Rv growth inhibition (assay: Mycobacterium tuberculosis H37Rv growth inhibition, putative kinase inhibitor library, confirmatory dose response (AID 2842);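 note: bacteria incubated one week before Alamar blue readout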).

Row | SMILES | IC90 [µg/mL]
1 | COc1ccc(-c2nnc(Nc3nc4c(OC)cccc4s3)o2)cc1 | 23.6 (≈ 66.5 µM)
2 | Cc1ccc(NCCn2c(C)cn3c4c(=O)[nH]c(=O)n(C)c4nc23)cc1 | 15.1 (≈ 42.9 µM)
3 | Cc1ccc(C2=NC(C)(C)N=C2SCC(=O)Nc2ccc(C)c(C)c2)cc1 | 23.5 (≈ 61.9 µM)
4 | Fc1cccc2sc(N3CCCC3)nc12 | 86.3 (≈ 388 µM)
5 | O=C(/C=C/c1cccs1)Nc1nnc(-c2ccco2)o1 | 5.99 (≈ 20.8 µM)
6 | O=C(NCc1nnc(SCC(=O)N2CCC(Cc3ccccc3)CC2)o1)c1ccco1 | 25.1 (≈ 57 µM)
7 | O=C(c1cccs1)N(CCCn1ccnc1)c1nc2c(Cl)cccc2s1 | 5.18 (≈ 12.9 µM)
8 | Cc1ccc(C)c(-c2nnc(NC(=O)C3CC3)o2)c1 | 1.46 (≈ 5.67 µM)
9 | O=C(Nc1nnc(-c2ccc(Br)cc2)o1)c1cc(Cl)sc1Cl | 3.43 (≈ 8.18 µM)
10 | CCOc1cccc2sc(Nc3nc4ccc(OC)cc4s3)nc12 | 3.19 (≈ 8.92 µM)
11 | Cc1ccc(C)c(-c2nnc(NC(=O)c3ccc(S(=O)(=O)N(C)c4ccccc4)cc3)o2)c1 | 13.3 (≈ 28.8 µM)
12 | COc1ccccc1-c1cnn2c(Nc3ccc(C)c(C)c3)cc(C)nc12 | 14.4 (≈ 40.3 µM)
13 | N#Cc1ccc(C(=O)Nc2nnc(-c3ccc(Cl)cc3)o2)cc1 | 56.7 (≈ 174 µM)
14 | Cc1ccc(C2C(C#N)=C(SCC(=O)Nc3cccc(Cl)c3)NC3=C2C(=O)CCC3)o1 (stereo not given) | 12.1 (≈ 26.6 µM)
15 | COc1ccc(-c2nnc(NC(=O)C(C)C)o2)cc1 | 19.9 (≈ 76.3 µM)
16 | O=C(Nc1nnc(-c2ccc(F)cc2)o1)c1cccc(C(F)(F)F)c1 | 11.7 (≈ 33.4 µM)
17 | COC(=O)c1c(NC(=O)C(c2ccccc2)c2ccccc2)sc2c1CC(C)(C)NC2(C)C | 6.07 (≈ 13.1 µM)
18 | Fc1cccc2sc(Nc3nnc(-c4ccccc4Cl)o3)nc12 | 16.8 (≈ 48.3 µM)
19 | CCCCOc1ccc(C(=O)Nc2nnc(-c3ccccn3)o2)cc1 | 11.6 (≈ 34.3 µM)
20 | CCOC(=O)Cn1c(=NC(=O)c2ccc([N+](=O)[O-])s2)sc2cc(S(C)(=O)=O)ccc21 | 21.8 (≈ 46.5 µM)
21 | CC(C)(C)c1ccc(C(=O)Nc2nnc(-c3cccnc3)o2)cc1 | 0.84 (≈ 2.61 µM)
22 | O=C(c1ccco1)N(CCCn1ccnc1)c1nc2ccc(Cl)cc2s1 | 0.89 (≈ 2.3 µM)
23 | CCC(=O)Nc1nnc(-c2cccs2)o1 | 17.1 (≈ 76.8 µM)

Row | SMILES | IC90 [µg/mL]
24 | COc1cccc(-c2nnc(NC(=O)c3ccccc3Br)o2)c1 | 2.17 (≈ 5.8 µM)
25 | O=C(Nc1nnc(-c2ccco2)o1)c1cccs1 | 3.12 (≈ 11.9 µM)
26 | CCOC(=O)N1CCN(c2ncnc3c2cnn3-c2ccc(C)cc2)CC1 | 21.4 (≈ 58.5 µM)
27 | O=C(/C=C/c1cccs1)Nc1nnc(-c2ccc3c(c2)OCCO3)o1 | 37 (≈ 104 µM)
28 | O=C(Nc1nnc(-c2ccc(Cl)cc2)o1)c1cccc(C(F)(F)F)c1 | 2.99 (≈ 8.13 µM)
29 | N#Cc1ccc(C(=O)Nc2nnc(-c3ccc(Br)cc3)o2)cc1 | 7.39 (≈ 20 µM)
30 | Cc1cc(C)c2nc(C(F)(F)F)nc(NC(C)CCc3ccccc3)c2c1 (stereo not given) | 7.61 (≈ 20.4 µM)
31 | COc1ccc(-c2nnc3c4cc5c(cc4n(Cc4ccc(C)cc4)cc2-3)OCCO5)cc1 | 5.09 (≈ 11.6 µM)
32 | Cc1ccc(S(=O)(=O)CCCC(=O)Nc2nc3c(Cl)c(Cl)ccc3s2)cc1 | 3.41 (≈ 7.69 µM)
33 | Clc1cc(Cl)c2nc(N3CCCC3)sc2c1 | 19 (≈ 69.5 µM)
34 | COC(=O)c1c(NC(=O)c2cc3ccccc3cc2OC)sc2c1CC(C)(C)NC2(C)C | 31.8 (≈ 70.2 µM)
35 | Cn1c(=O)c2c(nc(SCC(=O)c3ccccc3)n2Cc2ccc(F)cc2)n(C)c1=O | 31.8 (≈ 72.4 µM)
36 | O=C(Nc1nnc(-c2ccc(Cl)s2)o1)C1CCCCC1 | 6.45 (≈ 20.7 µM)
37 | CCN1C(=O)c2cccc3c(NC(=O)c4ccc(Cl)s4)ccc1c23 | 8.65 (≈ 24.2 µM)
38 | O=C1Nc2ccccc2/C1=C/C(=O)c1ccc([N+](=O)[O-])cc1 | 47.7 (≈ 162 µM)
39 | Cc1c(CCC#N)c(=O)n2c([nH]c3ccccc32)c1C#N | 2.29 (≈ 8.29 µM)
40 | COc1ccc(OC)c(Nc2nc(NCCN(C)C)nc3c2cnn3-c2ccccc2)c1 | 7.29 (≈ 16.8 µM)
41 | COc1ccccc1Cn1cc2c(-c3ccc(F)cc3)nnc-2c2cc(C)ccc21 | 49.2 (≈ 124 µM)
42 | COc1cccc2sc(N(CCCn3ccnc3)C(=O)Cc3ccc(F)cc3)nc12 | 3.48 (≈ 8.2 µM)
43 | Cc1cc(NC2CCCCC2)n2ncc(-c3ccccc3)c2n1 | 10.6 (≈ 34.5 µM)
44 | O=C(Nc1nnc(-c2ccc3c(c2)CCCC3)o1)C1CCCCC1 | 40.2 (≈ 124 µM)
45 | O=C(Nc1nnc(-c2ccc3c(c2)CCCC3)o1)c1sc2ccccc2c1Cl | 34.5 (≈ 84.2 µM)
46 | COc1cccc2sc(Nc3nc4ccc(Cl)cc4s3)nc12 | 13.9 (≈ 40 µM)

Row | SMILES | IC90 [µg/mL]
47 | O=C(NNc1nc2ccc(Cl)cc2s1)c1cc(-c2cccs2)nc2ccccc12 | 30.9 (≈ 70.8 µM)
48 | OCc1nc2ccccc2n1CCCCOc1ccc(Cl)cc1 | 7.39 (≈ 22.3 µM)
49 | O=C(Nc1nnc(-c2cc(Cl)ccc2Cl)o1)C1CC1 | 7.42 (≈ 24.9 µM)
50 | CS(=O)(=O)c1ccc(-c2nnc(NC(=O)c3ccc(Cl)s3)o2)cc1 | 1.67 (≈ 4.35 µM)
51 | O=C(c1cccs1)N(CCCn1ccnc1)c1nc2ccccc2s1 | 6 (≈ 16.3 µM)
52 | CC(C)C(=O)Nc1nnc(-c2ccccc2)o1 | 3.31 (≈ 14.3 µM)
53 | Cc1ccc(C)c(-c2nnc(NC(=O)c3ccccc3F)o2)c1 | < 0.2
54 | COc1cccc(-c2csc(NC(=O)c3ccc4c(c3)OCCO4)n2)c1 | 14.3 (≈ 39 µM)
55 | COc1ccc(C(=O)N(CCCn2ccnc2)c2nc3c(C)c(C)ccc3s2)cc1OC | 14.2 (≈ 31.5 µM)
56 | O=C(Nc1nnc(-c2cccnc2)o1)c1ccccc1Cl | 53.5 (≈ 178 µM)
57 | COc1cccc2sc(Nc3nc4ccc(S(C)(=O)=O)cc4s3)nc12 | 20.2 (≈ 51.7 µM)
58 | O=C(Nc1nnc(-c2ccc(Cl)s2)o1)c1nc2ccccc2s1 | 4.81 (≈ 13.3 µM)
59 | CSc1ccccc1-c1nnc(NC(=O)c2cc(Cl)sc2Cl)o1 | 11.7 (≈ 30.2 µM)
60 | COc1ccc(-c2nnc3c4cc5c(cc4n(Cc4cccc(OC)c4)cc2-3)OCCO5)cc1 | 5.28 (≈ 11.6 µM)
61 | O=C(Nc1nnc(-c2ccco2)o1)c1cc(Cl)ccc1Cl | 4.99 (≈ 15.4 µM)
62 | CSc1ccc2nc(Nc3nc4ccc(NC(C)=O)cc4s3)sc2c1 | < 0.2
63 | CCOc1ccc2c(c1)c1nnc(-c3ccc(OC)cc3)c-1cn2Cc1cccc(C)c1 | 20.7 (≈ 48.9 µM)
64 | CCOC(=O)N1CCc2c(sc(NC(=O)c3nc4ccccc4s3)c2C(N)=O)C1 | 3.48 (≈ 8.08 µM)
65 | O=C(CCSc1ccccc1)Nc1nnc(-c2ccc3c(c2)OCCO3)o1 | 16.8 (≈ 43.9 µM)
66 | Cc1ccc(C)c(-c2nnc(NC(=O)c3ccc([N+](=O)[O-])s3)o2)c1 | 3.09 (≈ 8.97 µM)
67 | CCc1ccc(Nc2ncnc3c2cnn3-c2ccc(C)cc2C)cc1 | 6.47 (≈ 18.8 µM)
68 | CCCCOc1ccc(C(=O)Nc2nnc(-c3cc(C)ccc3C)o2)cc1 | 25.4 (≈ 69.5 µM)
69 | COc1ccc(-c2nnc3c4cc(OC)c(OC)cc4n(Cc4ccccc4)cc2-3)cc1 | 11 (≈ 25.8 µM)

Row | SMILES | IC90 [µg/mL]
70 | O=C(Cc1ccccc1)Nc1nnc(-c2ccc3c(c2)OCCO3)o1 | 15.8 (≈ 47 µM)
71 | Cc1ccc(Nc2nc(N3CCCC3)nc3nccnc23)cc1C | 3.21 (≈ 10 µM)
72 | c1ccc(CN2CCN(c3nc(Nc4ccccc4)c4nccnc4n3)CC2)cc1 | 5.37 (≈ 13.5 µM)
73 | CCOc1ccc2nc(SC3CC(=O)N(c4ccc(N5CCCCC5)cc4)C3=O)sc2c1 (stereo not given) | 24.8 (≈ 53 µM)
74 | Cc1cccc(C(=O)Nc2nnc(-c3cc(Cl)ccc3Cl)o2)c1 | 32 (≈ 91.9 µM)
75 | COc1cc(OC)cc(C(=O)N(CCCn2ccnc2)c2nc3cc(C)cc(C)c3s2)c1 | 6.63 (≈ 14.7 µM)
76 | O=C(Nc1nc(-c2ccc3c(c2)OCCO3)cs1)C1CCCCC1 | 11.7 (≈ 34 µM)
77 | COc1ccccc1N1CCN(c2nc(Nc3ccc(C)c(C)c3)c3nccnc3n2)CC1 | 1.68 (≈ 3.8 µM)
78 | O=C(Nc1nnc(-c2cc(Cl)ccc2Cl)o1)c1cccs1 | 0.76 (≈ 2.23 µM)
79 | CSc1nc2cc(NC(=S)NC(=O)c3ccccc3)ccc2s1 | 6.89 (≈ 19.2 µM)
80 | CSc1cccc(-c2nnc(NC(=O)c3cc([N+](=O)[O-])ccc3Cl)o2)c1 | 0.88 (≈ 2.25 µM)
81 | C=CCOC(=O)COc1ccc2cc(-c3ccccc3)c(=O)oc2c1 | 1.22 (≈ 3.63 µM)
82 | CC(=O)Nc1ccc2nc(Nc3nc4ccc(C(C)C)cc4s3)sc2c1 | 2 (≈ 5.23 µM)
83 | Cc1ccc(C)c(-c2nnc(NC(=O)c3ccccc3S(C)(=O)=O)o2)c1 | 19.3 (≈ 52 µM)
84 | CCC(=O)Nc1nnc(-c2ccc(Br)cc2)o1 | 6.26 (≈ 21.1 µM)
85 | COc1cccc(-c2nnc(NC(=O)/C=C/c3cccs3)o2)c1 | 3.55 (≈ 10.8 µM)
86 | CCOC(=O)c1c(NC(=O)Cc2cccc3ccccc23)sc2c1CC(C)(C)NC2(C)C | 2.08 (≈ 4.62 µM)
87 | COc1cccc(-c2nnc(NC(=O)c3ccc(Cl)cc3)o2)c1 | 33.8 (≈ 102 µM)
88 | Cc1cc(C)c2sc(NNC(=O)c3ccc(S(=O)(=O)N4CCCCC4)cc3)nc2c1 | 29.4 (≈ 66 µM)
89 | CC(C)Oc1ccc(C(=O)Nc2nnc(-c3cc(Cl)ccc3Cl)o2)cc1 | 13.8 (≈ 35.3 µM)
90 | COc1ccccc1Cn1cc2c(-c3ccc(C)cc3)nnc-2c2cc(C)ccc21 | 3.48 (≈ 8.84 µM)
91 | CCOC(=O)N1CCN(c2ncnc3c2cnn3-c2ccc(C)c(C)c2)CC1 | 9.11 (≈ 23.9 µM)
92 | CCC(=O)Nc1nnc(-c2cc(Cl)ccc2Cl)o1 | 30.1 (≈ 105 µM)

Row | SMILES | IC90 [µg/mL]
93 | Cc1ccc2cc(CCNC(=S)NCCn3ccc4ccccc43)c(=O)[nH]c2c1 | 1.26 (≈ 3.11 µM)
94 | CSc1cccc2sc(Nc3cccc(C)c3)nc12 | 12.2 (≈ 42.7 µM)
95 | CCc1cccc2sc(N(CCCn3ccnc3)C(=O)/C=C/c3cccs3)nc12 | 0.83 (≈ 1.96 µM)
96 | Cc1ccc(C)c(-c2csc(NC(=O)c3ccc([N+](=O)[O-])s3)n2)c1 | 3.37 (≈ 9.38 µM)
97 | N#C/C(=C(\O)c1ccc2c(c1)OCCO2)c1nc2ccccc2s1 | 37.7 (≈ 112 µM)
98 | O=C(c1ccco1)N(CCCn1ccnc1)c1nc2c(F)cc(F)cc2s1 | 0.75 (≈ 1.93 µM)
99 | Cc1cccc(N2CCN(C(=O)CCCCCn3c(=O)[nH]c4ccsc4c3=O)CC2C)c1 (stereo not given) | 19.5 (≈ 42.9 µM)
100 | C=CCOC(=O)COc1ccc2cc(-c3ccc(Cl)cc3)c(=O)oc2c1 | 2.53 (≈ 6.82 µM)
101 | CCOC(=O)N1CCc2c(sc(NC(=O)c3ccc(F)cc3)c2C(N)=O)C1 | 1.89 (≈ 4.83 µM)
102 | Cc1cccc2sc(NNC(=O)c3cc(-c4cccs4)nc4ccccc34)nc12 | 22.8 (≈ 54.8 µM)
103 | O=C(Nc1nnc(-c2ccc3c(c2)CCCC3)o1)c1ccc(F)cc1 | 21.6 (≈ 64 µM)
104 | O=C(Nc1nnc(-c2ccc3c(c2)CCCC3)o1)c1ccc(Cl)s1 | 3.63 (≈ 10.1 µM)
105 | COc1cc2ccccc2cc1C(=O)Nc1nccs1 | 30.2 (≈ 106 µM)
106 | COc1cccc(-c2csc(NC(=O)C3CCCCC3)n2)c1 | 19.8 (≈ 62.6 µM)
107 | Cc1ccc2[nH]c(=O)c(C3=NN(C(=O)c4ccco4)C(c4ccco4)C3)c(-c3ccccc3)c2c1 (stereo not given) | 15.4 (≈ 33.3 µM)
108 | O=C(Nc1nnc(-c2ccccc2)o1)c1ccc2c(c1)CCCC2 | 15.5 (≈ 48.7 µM)
109 | CC(=O)OCn1nnc2ccccc2c1=O | 3.33 (≈ 15.2 µM)
110 | COc1cc(OC)cc(C(=O)N(CCCn2ccnc2)c2nc3c(C)cc(C)cc3s2)c1 | 10.1 (≈ 22.3 µM)
111 | COc1ccccc1-c1nnc(NC(=O)c2ccc3c(c2)CCCC3)o1 | 8.04 (≈ 23 µM)
112 | CCOC(CNc1ncnc2c1cnn2-c1ccc(C)c(C)c1)OCC | 21.8 (≈ 61.4 µM)
113 | COc1cc(C(=O)Nc2nnc(-c3ccc(C)cc3C)o2)cc(OC)c1OC | 2.53 (≈ 6.6 µM)
114 | COc1cccc(-c2nnc(SCC(=O)Nc3cc(C)on3)o2)c1 | 3.26 (≈ 9.41 µM)
115 | O=[n+]1c2ccccc2n([O-])c2ccccc21 | 3.52 (≈ 16.6 µM)
